7 compounds from patent US20220347247A1, “USE OF CANNABINOIDS IN THE TREATMENT OF INFLAMMATION AND AGING IN THE SKIN” (priority 2021, published 2022) can be followed below.

One experiment relates to IL-8. Nature of the experiment: cells. Type of experiment: cell-based, human. Conditions: for effect on IL-8 release, in words: PMA-stimulated keratinocytes; for % Relative inhibition of IL-8 release: PMA 0.5 μg/ml. On the procedure: (§1) Example 1: Effects of six compounds on normal human epidermal keratinocytes The effects on normal human epidermal keratinocytes (NHEK) were measured by assessing IL-8 and PGE2 release by PMA-stimulated NHEK using specific ELISA kits.
(§2) Keratinocytes were seeded in 96-well plates and cultured for 24 hours in culture medium. […] After pre-incubation, the medium was removed and replaced by assay medium 1 containing or not (stimulated control) the compounds or the reference compound and containing the inducer (PMA tested at 0.5 μg/ml). The cells were then incubated for 24 hours. In parallel, a non-stimulated control condition was performed.
(§3) All experimental conditions were performed in n=3. At the end of incubation, the culture supernatants were collected for IL-8 and PGE2 quantifications.
(§4) IL-8 and PGE2 released in the culture supernatants were measured using specific ELISA kits according to the supplier's instructions.

A further experiment has as its system PGE2. Description: PGE2 release by PMA-stimulated NHEK (ELISA). In kind it is cell-based, human. Particulars: for effect on PGE2 release, in words / PGE2 release, % of the control / % of relative inhibition of PGE2 release: PMA-stimulated keratinocytes; for effect on PGE2 release, in words: overall; for PGE2 release, % of the control: highest concentration tested; for % of relative inhibition of PGE2 release: concentration not given. On the procedure: as §1, §2, §3, §4
A general note: In an ELISA, binding on a coated surface is turned into a signal by an enzyme label.

Where [1] appears, read: Homo sapiens, NHEK, 24 h, read-out: % Relative inhibition of IL-8 release.
Setting [2] is: Homo sapiens, NHEK, 24 h, read-out: % Relative inhibition of PGE2 release.
Setting [3] is: 1 μM, NHEK, PMA 0.5 μg/ml, 24 h.

Each structure is given as a SMILES string. “Also recorded” adds a separate entry of the source. Read-outs that look alike come from different tables or passages of the source.

For orientation: inhibition means the relative decrease from the control value, in per cent. For `C=C(C)[C@@H]1CCC(C)=C[C@H]1c1c(O)cc(CCCCC)cc1O` [CBD, cannabidiol], in the experiment with IL-8 (0.3 μM), the “effect on IL-8 release, in words” value is on record as “overstimulated IL-8 release”. In addition, in the experiment with IL-8 (setting [1]), the inhibition at 0.1 µM is 12%, the inhibition at 0.3 µM is -44% and the inhibition at 1 µM was found to be 18%. The inhibition at 0.1 µM in the experiment on PGE2 (Homo sapiens, 0.1 μM, NHEK, PMA 0.5 μg/ml, 24 h, read-out: % Relative inhibition of PGE2 release) worked out at 0%. Besides, in the experiment on PGE2 (Homo sapiens, 0.3 μM, NHEK, PMA 0.5 μg/ml, 24 h, read-out: % Relative inhibition of PGE2 release), the inhibition at 0.3 µM is -59%. Besides, in the experiment with PGE2, the “effect on PGE2 release, in words” value is reported as “stimulate PGE2 expression” and the “PGE2 release, % of the control” value is reported as 185 % of the control.

On to `C=C(C)[C@@H]1CCC(C)=C[C@H]1c1c(O)cc(CCCCC)c(C(=O)O)c1O` [CBDA, cannabidiolic acid], for which, in the experiment on IL-8 (setting [1]), the inhibition at 0.03 µM was 11%, the inhibition at 0.1 µM worked out at 17% and the inhibition at 0.3 µM was 0%. Further, in the experiment on PGE2 (setting [2]), the inhibition at 0.03 µM is -24%, the inhibition at 0.1 µM was -50% and the inhibition at 0.3 µM is -20%. The “effect on PGE2 release, in words” value with PGE2 was “did not modulate PGE2 release”.

For the compound `CCCCCc1cc(O)c(C/C=C(\C)CCC=C(C)C)c(O)c1` [CBG, cannabigerol], the “effect on IL-8 release, in words” value in the experiment on IL-8 (3 μM) was “strongly inhibited”. Also, in the experiment on IL-8 (setting [1]), the inhibition at 0.3 µM was 7%, the inhibition at 1 µM is 20% and the inhibition at 3 µM worked out at 60%. In addition, the “effect on IL-8 release, in words” value with IL-8 (overall) was “significantly inhibited”. Moreover, in the experiment with PGE2 (setting [2]), the inhibition at 0.3 µM is 86%, the inhibition at 1 µM is over 169% and the inhibition at 3 µM is over 159%. In the experiment with PGE2, the “effect on PGE2 release, in words” value is listed as “significant at all tested concentrations; also recorded: significantly inhibited” and the “% of relative inhibition of PGE2 release” value is “about 160%”.

Turning to `CCCCCc1cc(O)c(C/C=C(\C)CCC=C(C)C)c(O)c1C(=O)O` [CBGA, cannabigerolic acid], in the experiment with IL-8 (setting [1]), the inhibition at 0.03 µM amounted to 0%, the inhibition at 0.1 µM was -7% and the inhibition at 0.3 µM amounted to 9%. In addition, in the experiment with PGE2 (setting [2]), the inhibition at 0.03 µM is -17% and the inhibition at 0.1 µM is -68%. For the same compound, in the experiment with PGE2, the “effect on PGE2 release, in words” value is “stimulate PGE2 expression” and the “PGE2 release, % of the control” value is recorded as 182 % of the control.

As to `CCCc1cc(O)c(C/C=C(\C)CCC=C(C)C)c(O)c1C(=O)O` [CBGVA, cannabigerovarinic acid], the “% Relative inhibition of IL-8 release” value with IL-8 (0.1 μM, NHEK, 24 h) is listed as 2%; with IL-8 (0.3 μM, NHEK, 24 h) it was 11%; with IL-8 (1 μM, NHEK, 24 h) it was 9%. Besides, the “% Relative inhibition of PGE2 release” value in the experiment on PGE2 (0.1 μM, NHEK, PMA 0.5 μg/ml, 24 h) is reported as 19%; with PGE2 (0.3 μM, NHEK, PMA 0.5 μg/ml, 24 h), 65%; with PGE2 (setting [3]), over 162%. For the same compound, the “effect on PGE2 release, in words” value in the experiment on PGE2 was “significant effect only when tested at the highest concentration; also recorded: inhibited PGE2 release”. In the experiment with PGE2, the “% of relative inhibition of PGE2 release” value is given as “about 160%”.

On to `COc1ccc2c(c1)c(CC(=O)O)c(C)n2C(=O)c1ccc(Cl)cc1` [Indomethacin, indomethacin, reference compound], for which the “% Relative inhibition of PGE2 release” value in the experiment with PGE2 (setting [3]) was over 169%. The inhibition at 1 µM with PGE2 (setting [2]) was over 169%.

Consider `O=C1O[C@H]([C@@H](O)CO)C(O)=C1O` [L-Ascorbic acid, reference compound], for which, in the experiment with IL-8 (setting [1]), the inhibition at 50 µg/mL is -10%, the inhibition at 100 µg/mL turned out to be 11% and the inhibition at 200 µg/mL is -15%. In addition, in the experiment on PGE2 (setting [2]), the inhibition at 50 µg/mL is over 148%, the inhibition at 100 µg/mL is over 160% and the inhibition at 200 µg/mL worked out at 127%. Besides, in the experiment with PGE2, the “effect on PGE2 release, in words” value was “overall the same effect at all tested concentrations; also recorded: significantly limited PGE2 release” and the “% of relative inhibition of PGE2 release” value is reported as about 145%.
